Laboratory results published in US20250213555A1, “SUBSTITUTED TETRAHYDROFURAN ANALOGS AS MODULATORS OF SODIUM CHANNELS” (VERTEX PHARMACEUTICALS INCORPORATED, priority 2021, published 2025).

target: human Nav 1.8 (Homo sapiens, UniProt Q9Y5Y9); assay: E-VIPR assay detecting and measuring Nav inhibition properties; format: cell-based; conditions: HEK cells expressing a truncated form of human Nav 1.8; compound numbers without "*" (not marked as run in the presence of human serum); read-out: measured IC50 value in the E-VIPR Assay
Sequence (Q9Y5Y9 126-399 limits assumed): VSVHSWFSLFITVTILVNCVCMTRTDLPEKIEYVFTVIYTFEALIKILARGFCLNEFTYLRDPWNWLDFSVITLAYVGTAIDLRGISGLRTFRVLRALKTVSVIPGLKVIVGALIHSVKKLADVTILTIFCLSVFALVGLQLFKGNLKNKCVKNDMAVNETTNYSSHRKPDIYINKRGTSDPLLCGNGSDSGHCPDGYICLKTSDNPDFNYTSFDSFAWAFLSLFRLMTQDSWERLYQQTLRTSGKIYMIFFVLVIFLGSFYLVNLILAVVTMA
Sequence (Q9Y5Y9 660-890 limits assumed): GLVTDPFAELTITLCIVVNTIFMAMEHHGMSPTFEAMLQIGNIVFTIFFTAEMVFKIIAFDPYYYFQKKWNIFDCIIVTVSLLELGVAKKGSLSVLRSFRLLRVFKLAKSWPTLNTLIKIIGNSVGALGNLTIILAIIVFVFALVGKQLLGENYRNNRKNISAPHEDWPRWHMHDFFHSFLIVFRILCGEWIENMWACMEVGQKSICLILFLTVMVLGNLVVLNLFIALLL
Sequence (Q9Y5Y9 1148-1722 limits assumed): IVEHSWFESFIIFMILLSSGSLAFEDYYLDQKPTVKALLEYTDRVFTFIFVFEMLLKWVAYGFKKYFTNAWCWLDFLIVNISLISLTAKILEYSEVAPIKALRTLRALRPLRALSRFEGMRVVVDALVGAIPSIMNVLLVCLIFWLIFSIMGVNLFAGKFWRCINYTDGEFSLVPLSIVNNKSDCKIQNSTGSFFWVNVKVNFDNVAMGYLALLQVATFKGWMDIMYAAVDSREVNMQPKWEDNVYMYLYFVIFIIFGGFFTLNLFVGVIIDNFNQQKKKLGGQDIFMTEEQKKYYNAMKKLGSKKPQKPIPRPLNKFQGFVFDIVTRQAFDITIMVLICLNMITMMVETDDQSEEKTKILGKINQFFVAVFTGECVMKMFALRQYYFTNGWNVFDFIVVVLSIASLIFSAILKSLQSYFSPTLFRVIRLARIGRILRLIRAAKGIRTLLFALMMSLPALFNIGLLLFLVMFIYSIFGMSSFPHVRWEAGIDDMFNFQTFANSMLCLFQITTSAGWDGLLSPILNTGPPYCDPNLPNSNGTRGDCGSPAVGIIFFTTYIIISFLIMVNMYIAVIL
Procedure, shortened: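 Nav inhibition was read by E-VIPR: cells were electrically stimulated while coumarin/oxonol FRET emissions were recorded. Cells were HEK expressing a truncated human Nav 1.8 and co-transduced with KIR2.1, and were assayed in 25% final human serum.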

`COc1c([C@H]2[C@H](C(=O)Nc3ccnc(C(=O)N4C[C@H](OC)[C@@H](N)C4)c3)O[C@@](C)(C(F)(F)F)[C@H]2C)ccc(F)c1F` [Compound 262, (2R,3S,4S,5R)-N-(2-((3S,4S)-3-amino-4-methoxypyrrolidine-1-carbonyl)pyridin-4-yl)-3-(3,4-difluoro-2-methoxyphenyl)-4,5-dimethyl-5-(trifluoromethyl)tetrahydrofuran-2-carboxamide] and `COc1c([C@H]2[C@H](C(=O)Nc3ccnc(C(=O)N4C[C@@H](F)[C@@H](N)C4)c3)O[C@@](C)(C(F)(F)F)[C@H]2C)ccc(F)c1F` [Compound 255, (2R,3S,4S,5R)-N-(2-((3S,4R)-3-amino-4-fluoropyrrolidine-1-carbonyl)pyridin-4-yl)-3-(3,4-difluoro-2-methoxyphenyl)-4,5-dimethyl-5-(trifluoromethyl)tetrahydrofuran-2-carboxamide] cannot be ordered by IC50: less than 10 nM for the first, less than 10 nM for the second.

Compared with `CCO[C@H]1CNC[C@@H]1NC(=O)c1cc(NC(=O)[C@@H]2O[C@@](C)(C(F)(F)F)[C@@H](C)[C@H]2c2ccc(F)c(F)c2OC)ccn1` [Compound 253, 4-((2R,3S,4S,5R)-3-(3,4-difluoro-2-methoxyphenyl)-4,5-dimethyl-5-(trifluoromethyl)tetrahydrofuran-2-carboxamido)-N-((3S,4S)-4-ethoxypyrrolidin-3-yl)picolinamide], `CCO[C@H]1CN(C)C[C@@H]1NC(=O)c1cc(NC(=O)[C@@H]2O[C@@](C)(C(F)(F)F)[C@@H](C)[C@H]2c2ccc(F)c(F)c2OC)ccn1` [Compound 291, 4-((2R,3S,4S,5R)-3-(3,4-difluoro-2-methoxyphenyl)-4,5-dimethyl-5-(trifluoromethyl)tetrahydrofuran-2-carboxamido)-N-((3S,4S)-4-ethoxy-1-methylpyrrolidin-3-yl)picolinamide] is higher in IC50: 10 to 100 nM for the first, 100 to 1000 nM for the second.

Compared with `CO[C@@H]1CCN(CCOc2c([C@H]3[C@H](C(=O)Nc4ccnc(C(N)=O)c4)O[C@@](C)(C(F)(F)F)[C@H]3C)ccc(F)c2F)C1` [Compound 128, 4-((2R,3S,4S,5R)-3-(3,4-difluoro-2-(2-((R)-3-methoxypyrrolidin-1-yl)ethoxy)phenyl)-4,5-dimethyl-5-(trifluoromethyl)tetrahydrofuran-2-carboxamido)picolinamide], `C[C@H]1[C@@H](c2ccc(F)c(F)c2OCCN2CC(C)(F)C2)[C@H](C(=O)Nc2ccnc(C(N)=O)c2)O[C@@]1(C)C(F)(F)F` [Compound 121, 4-((2R,3S,4S,5R)-3-(3,4-difluoro-2-(2-(3-fluoro-3-methylazetidin-1-yl)ethoxy)phenyl)-4,5-dimethyl-5-(trifluoromethyl)tetrahydrofuran-2-carboxamido)picolinamide] is lower in IC50: 10 to 100 nM for the first, less than 10 nM for the second.

`COc1c([C@H]2[C@H](C(=O)Nc3cc(C(=O)N4CCN(C)CC4)ncn3)O[C@@](C)(C(F)(F)F)[C@H]2C)ccc(F)c1F` [Compound 22, (2R,3S,4S,5R)-3-(3,4-difluoro-2-methoxyphenyl)-4,5-dimethyl-N-(6-(4-methylpiperazine-1-carbonyl)pyrimidin-4-yl)-5-(trifluoromethyl)tetrahydrofuran-2-carboxamide] and `COc1c([C@H]2[C@H](C(=O)Nc3cccc(C(=O)N4CCN(C)CC4)n3)O[C@@](C)(C(F)(F)F)[C@H]2C)ccc(F)c1F` [Compound 10, (2R,3S,4S,5R)-3-(3,4-difluoro-2-methoxyphenyl)-4,5-dimethyl-N-(6-(4-methylpiperazine-1-carbonyl)pyridin-2-yl)-5-(trifluoromethyl)tetrahydrofuran-2-carboxamide] fall in the same range of IC50: 100 to 1000 nM for the first, 100 to 1000 nM for the second.

First: C[C@]1(C(F)(F)F)C[C@@H](c2ccc(F)c(F)c2OCCO)[C@H](C(=O)Nc2ccnc(C(N)=O)c2)O1 (relative stereo) [Compound 33, rel-4-((2R,3S,5R)-3-(3,4-difluoro-2-(2-hydroxyethoxy)phenyl)-5-methyl-5-(trifluoromethyl)tetrahydrofuran-2-carboxamido)picolinamide]
Second: CNC(=O)c1cc(NC(=O)[C@@H]2O[C@@](C)(C(F)(F)F)[C@@H](C)[C@H]2c2ccc(F)c(F)c2OCCO)ccn1 [Compound 38, 4-((2R,3S,4S,5R)-3-(3,4-difluoro-2-(2-hydroxyethoxy)phenyl)-4,5-dimethyl-5-(trifluoromethyl)tetrahydrofuran-2-carboxamido)-N-methylpicolinamide]
The IC50 of the first is higher: 10 to 100 nM for the first, less than 10 nM for the second. The second is the more potent here.

`C[C@H]1[C@@H](c2ccc(F)c(F)c2OCC(=NO)C2CCC2)[C@H](C(=O)Nc2ccnc(C(N)=O)c2)O[C@@]1(C)C(F)(F)F` [Compound 191, 4-((2R,3S,4S,5R)-3-(2-(2-cyclobutyl-2-(hydroxyimino)ethoxy)-3,4-difluorophenyl)-4,5-dimethyl-5-(trifluoromethyl)tetrahydrofuran-2-carboxamido)picolinamide] and `C[C@H]1[C@@H](c2ccc(F)c(F)c2OC2CC(O)C2)[C@H](C(=O)Nc2ccnc(C(N)=O)c2)O[C@@]1(C)C(F)(F)F` (stereo partly drawn) [Compound 163, 4-((2R,3S,4S,5R)-3-(3,4-difluoro-2-(3-hydroxycyclobutoxy)phenyl)-4,5-dimethyl-5-(trifluoromethyl)tetrahydrofuran-2-carboxamido)picolinamide] cannot be ordered by IC50: less than 10 nM for the first, less than 10 nM for the second.

Going from `C[C@H]1[C@@H](c2cccc(C(F)(F)F)c2O[C@H]2C[C@@H](O)C2)[C@H](C(=O)Nc2ccnc(C(N)=O)c2)O[C@@]1(C)C(F)(F)F` [Compound 212, 4-((2R,3S,4S,5R)-3-(2-((1s,3R)-3-hydroxycyclobutoxy)-3-(trifluoromethyl)phenyl)-4,5-dimethyl-5-(trifluoromethyl)tetrahydrofuran-2-carboxamido) picolinamide] to `COc1c([C@@H]2[C@@H](C(=O)Nc3ccnc(C(N)=O)c3)O[C@](C)(C(F)(F)F)[C@@H]2C)ccc(F)c1CO` (single isomer, unassigned) [Compound 137], the IC50 rises from less than 10 nM to no less than 1000 nM. The first is the more potent here.

`COCC[C@@]1(C)C[C@H](c2ccc(F)c(F)c2OC)[C@@H](C(=O)Nc2ccnc(C(N)=O)c2)O1` (single isomer, unassigned) [Compound 31] and `COCC1(C)CC(c2ccc(F)c(F)c2OC)C(C(=O)Nc2ccnc(C(N)=O)c2)O1` (single isomer, unassigned) [Compound 27] cannot be ordered by IC50: 100 to 1000 nM for the first, no less than 1000 nM for the second.

`COc1c([C@H]2[C@H](C(=O)Nc3ccnc(C(N)=O)c3)O[C@@](C)(C(F)(F)F)[C@H]2C)cc(OC2CC(F)(F)C2)c(F)c1F` [Compound 179, 4-((2R,3S,4S,5R)-3-(5-(3,3-difluorocyclobutoxy)-3,4-difluoro-2-methoxyphenyl)-4,5-dimethyl-5-(trifluoromethyl)tetrahydrofuran-2-carboxamido) picolinamide] and `COCc1c([C@@H]2[C@@H](C(=O)Nc3ccnc(C(N)=O)c3)O[C@](C)(C(F)(F)F)[C@@H]2C)ccc(F)c1F` (single isomer, unassigned) [Compound 146] cannot be ordered by IC50: 100 to 1000 nM for the first, no less than 1000 nM for the second.

`COc1c([C@H]2[C@H](C(=O)Nc3ccnc(C(=O)N4C[C@H]5C[C@@H]4CN5)c3)O[C@@](C)(C(F)(F)F)[C@H]2C)ccc(F)c1F` [Compound 254, (2R,3S,4S,5R)-N-(2-((1R,4R)-2,5-diazabicyclo[2.2.1]heptane-2-carbonyl)pyridin-4-yl)-3-(3,4-difluoro-2-methoxyphenyl)-4,5-dimethyl-5-(trifluoromethyl)tetrahydrofuran-2-carboxamide] and `COc1c([C@H]2[C@H](C(=O)Nc3ccnc(C(=O)N4CC5COCC(C4)N5)c3)O[C@@](C)(C(F)(F)F)[C@H]2C)ccc(F)c1F` [Compound 245, (2R,3S,4S,5R)-N-(2-(3-oxa-7,9-diazabicyclo[3.3.1]nonane-7-carbonyl)pyridin-4-yl)-3-(3,4-difluoro-2-methoxyphenyl)-4,5-dimethyl-5-(trifluoromethyl)tetrahydrofuran-2-carboxamide] cannot be ordered by IC50: less than 10 nM for the first, less than 10 nM for the second.

Compared with `CNC1CCN(C(=O)c2cc(NC(=O)[C@@H]3O[C@@](C)(C(F)(F)F)[C@@H](C)[C@H]3c3ccc(F)c(F)c3OC)ccn2)C1` (single isomer, unassigned) [Compound 222, rel-(2R*,3S*,4S*,5R*)-3-(3,4-difluoro-2-methoxyphenyl)-4,5-dimethyl-N-(2-(3-(methylamino)pyrrolidine-1-carbonyl)pyridin-4-yl)-5-(trifluoromethyl)tetrahydrofuran-2-carboxamide], `COc1c([C@H]2[C@H](C(=O)Nc3ccnc(C(=O)N4CCC45CN(C)C5)c3)O[C@@](C)(C(F)(F)F)[C@H]2C)ccc(F)c1F` [Compound 266, (2R,3S,4S,5R)-3-(3,4-difluoro-2-methoxyphenyl)-4,5-dimethyl-N-(2-(6-methyl-1,6-diazaspiro[3.3]heptane-1-carbonyl)pyridin-4-yl)-5-(trifluoromethyl)tetrahydrofuran-2-carboxamide] is higher in IC50: less than 10 nM for the first, 10 to 100 nM for the second.

Compared with `COc1c([C@H]2[C@H](C(=O)Nc3ccnc(C(=O)NC[C@]4(C)CCCN4)c3)O[C@@](C)(C(F)(F)F)[C@H]2C)ccc(F)c1F` [Compound 233, 4-((2R,3S,4S,5R)-3-(3,4-difluoro-2-methoxyphenyl)-4,5-dimethyl-5-(trifluoromethyl)tetrahydrofuran-2-carboxamido)-N-(((S)-2-methylpyrrolidin-2-yl)methyl)picolinamide], `COc1c([C@H]2[C@H](C(=O)Nc3ccnc(C(=O)N4C[C@H](OC)[C@@H](N(C)C)C4)c3)O[C@@](C)(C(F)(F)F)[C@H]2C)ccc(F)c1F` [Compound 293, (2R,3S,4S,5R)-3-(3,4-difluoro-2-methoxyphenyl)-N-(2-((3S,4S)-3-(dimethylamino)-4-methoxypyrrolidine-1-carbonyl)pyridin-4-yl)-4,5-dimethyl-5-(trifluoromethyl)tetrahydrofuran-2-carboxamide] is lower in IC50: 10 to 100 nM for the first, less than 10 nM for the second. The second is the more potent here.

Work on `C[C@@H]1COCCN1CCOc1c([C@H]2[C@H](C(=O)Nc3ccnc(C(N)=O)c3)O[C@@](C)(C(F)(F)F)[C@H]2C)ccc(F)c1F` [Compound 56, 4-((2R,3S,4S,5R)-3-(3,4-difluoro-2-(2-((R)-3-methylmorpholino)ethoxy)phenyl)-4,5-dimethyl-5-(trifluoromethyl)tetrahydrofuran-2-carboxamido)picolinamide] yielded an IC50 of less than 10 nM.
